One experiment has as its target Aurora kinase B (Homo sapiens, UniProt Q96GD4). The class given is functional.
For experiment [1], the target named is Mitogen-activated protein kinase 8 (Homo sapiens, UniProt P45983). The class given is functional.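 Note: value comes from one member of a kinome-wide kinase profiling panel.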
Another experiment deals with Ephrin type-A receptor 2 (Homo sapiens, UniProt P29317). The class given is functional.
The target in experiment [2] is Serine/threonine-protein kinase PLK1 (Homo sapiens, UniProt P53350). The experiment is classed as functional.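 Note: PLK1 measured as one member of a kinome-wide profiling panel.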
The target of experiment [3] is PAS domain-containing serine/threonine-protein kinase (Homo sapiens, UniProt Q96RG2). The class given is functional.
Experiment [4] concerns the target Ribosomal protein S6 kinase alpha-3 (Homo sapiens, UniProt P51812). The class given is functional.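 Note: measured within a kinome-wide profiling panel.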
Experiment [5] has as its target Serine/threonine-protein kinase pim-2 (Homo sapiens, UniProt Q9P1W9). The experiment is classed as functional.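 Note: value comes from a broad kinase panel profiling study in which PIM2 was one of the panel members.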
Experiment [6] has as its target Cyclin-dependent kinase 1 (Homo sapiens, UniProt P06493). The class given is functional.
For experiment [7], the target named is Serine/threonine-protein kinase D3 (Homo sapiens, UniProt O94806). The experiment is classed as functional.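 Note: determined within a kinase panel screen, with PRKCN as the panel member.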
Experiment [8] addresses Homeodomain-interacting protein kinase 2 (Homo sapiens, UniProt Q9H2X6). The class given is functional.
In experiment [9] the target is Hepatocyte growth factor receptor (Homo sapiens, UniProt P08581). The class given is functional.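 Note: kinase panel profiling across the kinome, with MET as the panel member.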
Experiment [10] addresses Ribosomal protein S6 kinase beta-1 (Homo sapiens, UniProt P23443). The class given is functional.
Experiment [11] deals with Tyrosine-protein kinase Lck (Homo sapiens, UniProt P06239). The class given is functional.
Experiment [12] addresses Cyclin-dependent kinase 19 (Homo sapiens, UniProt Q9BWU1). The experiment in a line: Navigating the Kinome. Panel member name: CDC2L6. The experiment is classed as functional.
For experiment [13], the target named is Casein kinase I isoform delta (Homo sapiens, UniProt P48730). The experiment is classed as functional.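 Note: measured as one member (CSNK1D) of a kinome panel.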
Sequence of Casein kinase I isoform delta (P48730 whole entry, canonical isoform): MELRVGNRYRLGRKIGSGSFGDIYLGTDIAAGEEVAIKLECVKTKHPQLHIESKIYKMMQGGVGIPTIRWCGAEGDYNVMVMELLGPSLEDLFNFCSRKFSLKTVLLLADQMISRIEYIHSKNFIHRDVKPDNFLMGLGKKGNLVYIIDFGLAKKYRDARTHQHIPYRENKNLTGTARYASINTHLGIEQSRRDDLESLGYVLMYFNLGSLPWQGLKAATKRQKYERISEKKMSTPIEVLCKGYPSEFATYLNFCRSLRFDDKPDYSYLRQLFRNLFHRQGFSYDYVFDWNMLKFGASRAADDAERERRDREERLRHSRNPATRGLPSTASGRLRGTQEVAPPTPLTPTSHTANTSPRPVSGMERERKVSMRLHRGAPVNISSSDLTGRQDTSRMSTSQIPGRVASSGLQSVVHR
The target in experiment [14] is Fibroblast growth factor receptor 3 (Homo sapiens, UniProt P22607). The experiment is classed as functional.
The target in experiment [15] is Protein kinase C gamma type (Homo sapiens, UniProt P05129). The class given is functional.
In experiment [16] the target is Phosphorylase b kinase gamma catalytic chain, liver/testis isoform (Homo sapiens, UniProt P15735). The class given is functional.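 Note: PHKG2 measured as one member of a kinome-wide kinase panel.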
Experiment [17] has as its target Death-associated protein kinase 3 (Homo sapiens, UniProt O43293). The class given is functional.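 Note: measured as one member of a kinome-wide profiling panel.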
For experiment [18], the target named is Calcium/calmodulin-dependent protein kinase type 1 (Homo sapiens, UniProt Q14012). The class given is functional.
Sequence of Calcium/calmodulin-dependent protein kinase type 1 (Q14012 whole entry): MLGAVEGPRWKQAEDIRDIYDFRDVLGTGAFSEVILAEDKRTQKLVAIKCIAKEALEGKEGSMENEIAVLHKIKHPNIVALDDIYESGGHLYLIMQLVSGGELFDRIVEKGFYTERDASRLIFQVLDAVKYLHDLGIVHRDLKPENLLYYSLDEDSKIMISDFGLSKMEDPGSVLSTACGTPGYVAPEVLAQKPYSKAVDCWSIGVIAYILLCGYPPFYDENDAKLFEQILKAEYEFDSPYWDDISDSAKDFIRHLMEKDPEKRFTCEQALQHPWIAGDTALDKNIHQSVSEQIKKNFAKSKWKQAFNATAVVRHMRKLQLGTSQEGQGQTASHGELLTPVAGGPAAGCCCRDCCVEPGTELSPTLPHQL
For experiment [19], the target named is Cyclin-dependent kinase 5 (Homo sapiens, UniProt Q00535). The class given is functional.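 Note: CDK5 measured as one member of a kinase profiling panel.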
The target of experiment [20] is Cell division cycle 7-related protein kinase (Homo sapiens, UniProt O00311). The class given is functional.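 Note: value obtained from a kinome-wide kinase panel.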
Experiment [21] addresses Protein-tyrosine kinase 2-beta (Homo sapiens, UniProt Q14289). The class given is functional.
For experiment [22], the target named is T1, Tyrosine-protein phosphatase non-receptor type 7 (Homo sapiens, UniProt P35236).
T1 sequence (P35236 whole entry): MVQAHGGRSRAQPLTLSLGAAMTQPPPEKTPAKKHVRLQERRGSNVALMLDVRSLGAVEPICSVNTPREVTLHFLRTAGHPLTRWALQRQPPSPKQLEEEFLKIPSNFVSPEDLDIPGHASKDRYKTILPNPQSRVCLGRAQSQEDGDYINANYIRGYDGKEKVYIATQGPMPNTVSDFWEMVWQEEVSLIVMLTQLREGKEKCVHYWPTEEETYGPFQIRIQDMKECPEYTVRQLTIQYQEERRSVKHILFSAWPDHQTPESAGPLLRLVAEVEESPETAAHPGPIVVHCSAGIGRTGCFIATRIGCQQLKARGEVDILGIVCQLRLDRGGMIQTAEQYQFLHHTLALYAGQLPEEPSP
The experiment is classed as functional.

For experiment [23], the target named is Delta-type opioid receptor (Homo sapiens, UniProt P41143). The experiment in a line: Counterscreen for agonists of heterodimerization of the mu 1 (OPRM1) and delta 1 (OPRD1) opioid receptors: Luminescence-based cell-based high throughput dose response assay to identify agonists of OPRD1 homodimerization. [Related pubchem assays (depositor defined):AID504326, AID504355, AID504692, AID504904, AID504905]. The class given is functional.
Sequence of Delta-type opioid receptor (P41143 whole entry): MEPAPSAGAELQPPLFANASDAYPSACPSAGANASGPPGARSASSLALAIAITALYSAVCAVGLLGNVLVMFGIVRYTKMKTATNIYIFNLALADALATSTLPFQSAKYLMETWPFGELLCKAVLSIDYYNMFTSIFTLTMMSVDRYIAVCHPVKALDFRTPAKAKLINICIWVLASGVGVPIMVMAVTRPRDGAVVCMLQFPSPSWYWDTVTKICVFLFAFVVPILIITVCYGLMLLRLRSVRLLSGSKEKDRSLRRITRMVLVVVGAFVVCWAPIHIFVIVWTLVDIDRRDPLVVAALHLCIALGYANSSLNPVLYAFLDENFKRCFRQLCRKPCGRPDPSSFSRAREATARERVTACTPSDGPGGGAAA

The next experiment addresses T2, Caspase-3 (Homo sapiens, UniProt P42574).
T2 sequence (P42574 whole entry): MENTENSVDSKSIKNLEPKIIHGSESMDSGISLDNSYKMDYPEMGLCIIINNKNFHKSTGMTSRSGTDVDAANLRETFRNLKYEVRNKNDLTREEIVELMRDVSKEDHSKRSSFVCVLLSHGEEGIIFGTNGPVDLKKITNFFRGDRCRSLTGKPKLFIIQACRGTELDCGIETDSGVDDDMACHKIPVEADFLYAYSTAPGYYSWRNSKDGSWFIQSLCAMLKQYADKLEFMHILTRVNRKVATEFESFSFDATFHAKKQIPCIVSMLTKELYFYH
The experiment is classed as functional.

Experiment [24] concerns the target T3, Serine/threonine-protein phosphatase (Homo sapiens, UniProt Q9BPW0).
T3 sequence (Q9BPW0 whole entry): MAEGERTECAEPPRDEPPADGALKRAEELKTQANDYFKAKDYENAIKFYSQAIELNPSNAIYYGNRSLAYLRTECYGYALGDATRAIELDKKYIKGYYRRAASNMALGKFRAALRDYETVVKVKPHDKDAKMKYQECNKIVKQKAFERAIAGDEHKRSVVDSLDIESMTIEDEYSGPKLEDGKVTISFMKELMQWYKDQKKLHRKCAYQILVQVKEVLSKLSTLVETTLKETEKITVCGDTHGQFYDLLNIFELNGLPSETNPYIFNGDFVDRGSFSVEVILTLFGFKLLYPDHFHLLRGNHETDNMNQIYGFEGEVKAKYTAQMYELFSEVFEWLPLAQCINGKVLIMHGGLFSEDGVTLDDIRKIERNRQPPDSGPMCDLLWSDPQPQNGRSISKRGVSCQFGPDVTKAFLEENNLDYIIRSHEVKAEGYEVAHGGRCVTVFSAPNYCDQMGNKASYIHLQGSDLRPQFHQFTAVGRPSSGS
The experiment in a line: PP5 phosphatase inhibitors, dose response, biochemical, fluorescence (AID 2395).

Active and inactive are the calls of the source. Bounds are passed on as bounds.

Sequence of Cyclin-dependent kinase 19 (Q9BWU1 whole entry, canonical isoform): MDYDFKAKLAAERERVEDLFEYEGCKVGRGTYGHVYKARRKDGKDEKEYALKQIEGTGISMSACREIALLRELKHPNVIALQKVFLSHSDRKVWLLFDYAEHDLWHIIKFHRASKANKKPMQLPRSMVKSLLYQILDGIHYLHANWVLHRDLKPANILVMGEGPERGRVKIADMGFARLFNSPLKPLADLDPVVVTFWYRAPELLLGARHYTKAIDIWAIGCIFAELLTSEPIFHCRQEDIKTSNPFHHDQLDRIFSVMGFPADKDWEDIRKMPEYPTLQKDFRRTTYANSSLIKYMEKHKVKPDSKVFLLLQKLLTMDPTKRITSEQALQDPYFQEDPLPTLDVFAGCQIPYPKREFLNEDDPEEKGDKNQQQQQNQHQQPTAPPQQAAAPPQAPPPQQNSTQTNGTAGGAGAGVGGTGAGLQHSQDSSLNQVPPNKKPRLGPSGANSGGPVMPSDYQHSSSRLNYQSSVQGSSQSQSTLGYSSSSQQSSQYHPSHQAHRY
Sequence of Homeodomain-interacting protein kinase 2 (Q9H2X6 whole entry): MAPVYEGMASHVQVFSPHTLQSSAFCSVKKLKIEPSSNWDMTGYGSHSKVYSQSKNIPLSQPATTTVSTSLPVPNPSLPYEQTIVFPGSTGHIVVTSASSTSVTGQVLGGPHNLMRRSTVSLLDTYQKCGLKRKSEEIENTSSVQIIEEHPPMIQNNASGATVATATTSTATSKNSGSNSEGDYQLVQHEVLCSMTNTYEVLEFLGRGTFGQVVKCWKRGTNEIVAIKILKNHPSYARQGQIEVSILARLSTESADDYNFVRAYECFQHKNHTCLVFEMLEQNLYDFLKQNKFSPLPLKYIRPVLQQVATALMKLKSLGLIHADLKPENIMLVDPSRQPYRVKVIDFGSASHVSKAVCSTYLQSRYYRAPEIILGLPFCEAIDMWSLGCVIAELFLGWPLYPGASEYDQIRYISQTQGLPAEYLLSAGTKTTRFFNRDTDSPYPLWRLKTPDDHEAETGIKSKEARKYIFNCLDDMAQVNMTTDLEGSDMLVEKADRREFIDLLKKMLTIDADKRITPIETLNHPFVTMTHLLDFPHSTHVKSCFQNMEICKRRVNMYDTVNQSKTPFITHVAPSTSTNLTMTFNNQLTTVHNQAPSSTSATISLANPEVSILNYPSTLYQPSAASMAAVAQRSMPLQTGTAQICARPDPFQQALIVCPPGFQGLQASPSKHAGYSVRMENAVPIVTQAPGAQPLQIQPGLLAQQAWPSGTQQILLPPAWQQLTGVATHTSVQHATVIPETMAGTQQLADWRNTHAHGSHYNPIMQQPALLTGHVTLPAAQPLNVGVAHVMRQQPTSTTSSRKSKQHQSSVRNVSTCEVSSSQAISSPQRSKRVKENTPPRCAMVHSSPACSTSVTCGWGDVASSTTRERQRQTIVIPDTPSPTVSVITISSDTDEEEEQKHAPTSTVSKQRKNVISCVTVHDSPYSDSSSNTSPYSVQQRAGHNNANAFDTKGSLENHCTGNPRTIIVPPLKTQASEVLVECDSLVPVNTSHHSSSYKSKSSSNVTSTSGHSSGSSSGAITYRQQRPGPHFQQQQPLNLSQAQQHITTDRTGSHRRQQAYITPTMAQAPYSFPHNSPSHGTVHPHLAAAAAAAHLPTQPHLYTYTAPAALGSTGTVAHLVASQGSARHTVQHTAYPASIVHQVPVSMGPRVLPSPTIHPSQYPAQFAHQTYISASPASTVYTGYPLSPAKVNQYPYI
Sequence of Mitogen-activated protein kinase 8 (P45983 whole entry): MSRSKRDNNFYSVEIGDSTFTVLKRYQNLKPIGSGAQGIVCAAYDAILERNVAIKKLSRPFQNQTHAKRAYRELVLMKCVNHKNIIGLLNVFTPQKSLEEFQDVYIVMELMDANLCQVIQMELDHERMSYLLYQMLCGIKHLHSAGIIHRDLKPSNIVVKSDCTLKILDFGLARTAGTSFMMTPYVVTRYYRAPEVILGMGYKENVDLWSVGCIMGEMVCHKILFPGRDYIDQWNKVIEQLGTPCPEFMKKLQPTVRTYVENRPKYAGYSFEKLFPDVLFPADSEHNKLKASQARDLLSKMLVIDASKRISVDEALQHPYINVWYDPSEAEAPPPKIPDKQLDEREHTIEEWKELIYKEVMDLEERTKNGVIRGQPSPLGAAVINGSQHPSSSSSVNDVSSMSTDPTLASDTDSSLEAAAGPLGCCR
Sequence of Ephrin type-A receptor 2 (P29317 whole entry): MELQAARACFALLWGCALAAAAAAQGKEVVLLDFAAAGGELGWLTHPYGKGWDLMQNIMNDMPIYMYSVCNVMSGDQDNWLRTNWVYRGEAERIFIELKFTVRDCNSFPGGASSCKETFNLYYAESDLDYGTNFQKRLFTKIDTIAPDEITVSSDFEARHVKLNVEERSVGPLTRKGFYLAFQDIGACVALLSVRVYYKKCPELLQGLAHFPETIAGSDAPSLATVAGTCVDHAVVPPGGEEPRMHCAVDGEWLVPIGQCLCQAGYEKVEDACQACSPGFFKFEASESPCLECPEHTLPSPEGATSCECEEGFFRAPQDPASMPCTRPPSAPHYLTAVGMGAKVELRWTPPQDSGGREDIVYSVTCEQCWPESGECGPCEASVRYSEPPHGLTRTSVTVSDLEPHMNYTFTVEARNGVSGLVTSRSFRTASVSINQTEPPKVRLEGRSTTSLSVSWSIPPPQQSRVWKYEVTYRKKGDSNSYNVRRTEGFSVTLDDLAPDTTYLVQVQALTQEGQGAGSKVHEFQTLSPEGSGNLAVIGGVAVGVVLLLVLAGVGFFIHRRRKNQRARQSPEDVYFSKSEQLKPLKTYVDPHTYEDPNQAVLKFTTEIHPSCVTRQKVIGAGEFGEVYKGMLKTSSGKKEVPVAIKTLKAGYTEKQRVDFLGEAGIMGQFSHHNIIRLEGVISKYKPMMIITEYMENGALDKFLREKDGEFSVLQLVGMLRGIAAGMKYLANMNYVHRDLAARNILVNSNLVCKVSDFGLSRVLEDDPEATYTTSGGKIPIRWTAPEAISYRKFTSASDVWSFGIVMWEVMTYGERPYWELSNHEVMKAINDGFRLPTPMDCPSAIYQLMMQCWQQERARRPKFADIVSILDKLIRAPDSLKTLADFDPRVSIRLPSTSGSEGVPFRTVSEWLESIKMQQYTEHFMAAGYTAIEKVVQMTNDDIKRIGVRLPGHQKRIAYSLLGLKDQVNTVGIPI
Sequence of Death-associated protein kinase 3 (O43293 whole entry): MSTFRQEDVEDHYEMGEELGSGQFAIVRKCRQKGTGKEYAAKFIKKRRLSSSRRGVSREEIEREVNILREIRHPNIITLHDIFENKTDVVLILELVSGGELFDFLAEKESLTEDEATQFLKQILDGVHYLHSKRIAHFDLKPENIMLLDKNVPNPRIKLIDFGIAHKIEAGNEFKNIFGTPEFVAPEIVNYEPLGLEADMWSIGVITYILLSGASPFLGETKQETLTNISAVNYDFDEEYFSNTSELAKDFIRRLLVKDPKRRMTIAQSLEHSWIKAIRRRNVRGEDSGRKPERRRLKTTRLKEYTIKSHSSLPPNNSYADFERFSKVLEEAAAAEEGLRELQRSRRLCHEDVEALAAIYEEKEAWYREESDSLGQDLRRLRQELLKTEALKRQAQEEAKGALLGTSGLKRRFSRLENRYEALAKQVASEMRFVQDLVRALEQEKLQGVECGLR
Sequence of Cyclin-dependent kinase 1 (P06493 whole entry): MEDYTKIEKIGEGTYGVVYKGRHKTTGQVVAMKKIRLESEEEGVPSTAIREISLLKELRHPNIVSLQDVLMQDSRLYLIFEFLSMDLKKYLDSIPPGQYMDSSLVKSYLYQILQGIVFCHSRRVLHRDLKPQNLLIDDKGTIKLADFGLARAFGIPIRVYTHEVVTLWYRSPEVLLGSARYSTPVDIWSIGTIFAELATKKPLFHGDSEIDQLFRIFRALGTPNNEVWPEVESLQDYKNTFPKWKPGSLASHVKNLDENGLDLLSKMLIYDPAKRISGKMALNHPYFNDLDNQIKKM

For `COc1cc2ncn(-c3cc(OCc4ccccc4C(F)(F)F)c(C(N)=O)s3)c2cc1OC` [GW843682X], the Ki on Aurora kinase B was > 6.31 µM (inactive); in experiment [1], > 3.16 µM (inactive); on Ephrin type-A receptor 2, > 3.16 µM (inactive); in [2], 0.0126 µM (active); in experiment [3], > 1.58 µM (inactive); in [4], 7.94 µM (active). Moreover, the Ki was > 1.58 µM (inactive) in experiment [5]; > 7.94 µM (inactive) in experiment [6]; > 10 µM (inactive) in experiment [7]; > 3.16 µM (inactive) in experiment [8]; > 3.16 µM (inactive) in [9]; > 6.31 µM (inactive) in experiment [10]. The Ki in experiment [11] is 2 µM (active); in experiment [12], > 100 µM (inactive); in [13], > 7.94 µM (inactive); in experiment [14], > 2 µM (inactive); in experiment [15] it was > 7.94 µM (inactive); in experiment [16], > 5.01 µM (inactive). Further, the Ki is > 1.26 µM (inactive) in [17]; > 7.94 µM (inactive) in [18]; > 10 µM (inactive) in [19]; > 1.26 µM (inactive) in experiment [20]; 0.158 µM (active) in experiment [21].

With `CCCc1nc2c(=O)n(C)c(=O)nc-2n(C)n1`, the IC50 in experiment [22] is < 1.24 µM (active). Moreover, the EC50 in experiment [23] was > 92.5 µM (inactive).

Consider `CC(=O)c1ccc(NC2=C(N3CCOCC3)C(=O)c3ccccc3C2=O)cc1`, for which the IC50 at Caspase-3 is 30 µM (active); in experiment [24], 19.3 µM (not active).

For the origin of these results see ChEMBL document CHEMBL1201862, “PubChem BioAssay data set” (2004).
